In ChEMBL document CHEMBL4017449, “Inhibition of Malassezia globosa carbonic anhydrase with phenols” (Bioorg Med Chem, 2017) one finds Ki data, which are given here for 23 molecules.

A short description of experiment [1]: Inhibition of Malassezia globosa recombinant beta-carbonic anhydrase preincubated for 15 mins prior to testing measured for 10 to 100 secs by phenol red-based stopped-flow CO2 hydration assay.
A further experiment has as its target Carbonic anhydrase 2 (Homo sapiens, UniProt P00918). Kind of experiment: Inhibition of human recombinant carbonic anhydrase 2 preincubated for 15 mins prior to testing measured for 10 to 100 secs by phenol red-based stopped-flow CO2 hydration assay.
For the next experiment, the target named is Carbonic anhydrase 1 (Homo sapiens, UniProt P00915). Kind of experiment: Inhibition of human recombinant carbonic anhydrase 1 preincubated for 15 mins prior to testing measured for 10 to 100 secs by phenol red-based stopped-flow CO2 hydration assay.
Sequence of Carbonic anhydrase 1 (P00915 whole entry): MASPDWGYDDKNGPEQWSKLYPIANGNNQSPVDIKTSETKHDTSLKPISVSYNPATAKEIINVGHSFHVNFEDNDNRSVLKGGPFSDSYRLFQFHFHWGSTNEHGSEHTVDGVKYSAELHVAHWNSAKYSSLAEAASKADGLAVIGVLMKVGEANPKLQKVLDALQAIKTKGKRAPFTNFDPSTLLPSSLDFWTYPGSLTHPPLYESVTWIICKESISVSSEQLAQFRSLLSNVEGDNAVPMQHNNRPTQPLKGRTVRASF

In the case of `Nc1cc(O)ccc1Cl`, the Ki – broadly, the equilibrium dissociation constant of an inhibitor or competing ligand from its target – in experiment [1] stood at 44.9 µM.

Consider `Oc1c(F)cc(F)cc1F`, for which the Ki was 36.4 µM in experiment [1], above 100 µM at Carbonic anhydrase 2 and above 100 µM at Carbonic anhydrase 1.

On to `Oc1cc(F)cc(F)c1`, for which the Ki in experiment [1] is 8.8 µM.

As to `Oc1cc(F)ccc1F`, the Ki in experiment [1] was found to be 29.7 µM.

Turning to `Oc1ccc(O)c(O)c1`, the Ki in experiment [1] was 7.4 µM; at Carbonic anhydrase 2 it was above 100 µM; on Carbonic anhydrase 1, above 100 µM.

In the case of `Nc1ccc(O)c(Cl)c1`, the Ki in experiment [1] was above 100 µM; at Carbonic anhydrase 2 it was 57.5 µM; on Carbonic anhydrase 1, 57.8 µM.

With `O=C(O)c1c(O)cccc1O`, the Ki in experiment [1] turned out to be 5.9 µM.

For the molecule `Nc1cccc(O)c1` [3-AMINOPHENOL], the Ki in experiment [1] stood at 3.9 µM.

In the case of `Nc1ccc(O)cc1` [4-AMINOPHENOL], the Ki in experiment [1] was 32 µM.

`N#Cc1ccc(O)cc1` [4-CYANOPHENOL]: the Ki in experiment [1] is 0.7 µM.

With `CC(=O)Nc1ccc(O)cc1` [ACETAMINOPHEN], in experiment [1], the Ki stood at 2.5 µM.

As to `CC(=O)Nc1nnc(S(N)(=O)=O)s1` [ACETAZOLAMIDE], the inhibition constant Ki in experiment [1] is 74 µM.

As to `O=C(O)/C=C/c1ccc(O)c(O)c1` [CAFFEIC ACID], in experiment [1], the Ki is 0.6 µM.

Consider `Oc1ccccc1O` [CATECHOL], for which the Ki in experiment [1] came to 7 µM.

Take `O=C(O)/C=C/c1ccc(O)cc1` [COUMARIC ACID]: the Ki in experiment [1] is 3.3 µM.

On to `O=C(O)c1cc(O)ccc1O` [GENTISIC ACID], for which, in experiment [1], the Ki was found to be 4.5 µM.

As for `Oc1ccc(O)cc1` [HYDROQUINONE], in experiment [1], the Ki was 6.3 µM.

With `O=C(O)c1ccc(O)cc1` [PARABEN], in experiment [1], the Ki came to 4.9 µM.

`OCc1ccc(O)cc1` [PARAHYDROXYBENZYL ALCOHOL]: the Ki in experiment [1] was 6.1 µM.

Regarding `Oc1ccccc1` [PHENOL], in experiment [1], the Ki worked out at 65 µM.

For `O=C(O)c1ccc(O)c(O)c1` [PROTOCATECHUIC ACID], the inhibition constant (Ki) in experiment [1] amounted to 6.5 µM.

Regarding `Oc1cccc(O)c1` [RESORCINOL], the Ki in experiment [1] turned out to be 6.1 µM.

Take `O=C(O)c1ccccc1O` [SALICYLIC ACID]: the inhibitory constant (Ki) in experiment [1] is 6.6 µM.
